# In US20190231668A1, “SKIN WHITENING COMPOSITION CONTAINING MANNOSYLERYTHRITOL LIPID” (AMOREPACIFIC CORPORATION, priority 2016, published 2019):
# Test system: B16F10 (melanoma cell) cell line
# Test: Inhibitory effect on melanin production in α-MSH-stimulated melanin pigment producing cells
# Type: cell-based, mouse
# Settings: medium with α-MSH (200 nM) and 100 ppm of substance, untreated medium = 100%, α-MSH alone about 270%
# Description: The inhibitory effect on melanin production in melanin pigment producing cells by the mannosylerythritol lipid (hereinafter referred to as MEL) was measured. As the cell line and serum, the mouse-derived B16F10 (melanoma cell) cell line purchased from ATCC and FBS (Cat No. 30-2020) were used. The DMEM (Cat No. 11995) required for cell culture and antibiotic-antifungal agent (Cat No. 15240-062) were purchased from Invitrogen company (GIBCO). The cell line was cultured under the conditions of 37° C., 10% CO2. […] Kojic acid was used as a positive control. After the fifth day, 1N NaOH was added and reacted at 60° C. for 2 hours to dissolve the melanin contained in the cells, and then measured the amount of melanin by measuring the absorbance at 405 nm. […] It was confirmed that the expression amount of melanin pigment by B16F10 cells in the medium supplemented with α-MSH and 100 ppm of kojic acid is about 110%, and thus the expression of melanin pigment was inhibited, and it was confirmed that the expression amount of melanin pigment in the medium supplemented with α-MSH and 1 ppm of MEL was about 180%, and the expression amount of melanin pigment in the medium supplemented with α-MSH and 5 ppm of MEL was about 90% and thus the expression of melanin pigment was inhibited.
smiles,measurement,value
O=c1cc(CO)occ1O [kojic acid],expression amount of melanin pigment,about 110%
